Reference: PubChem BioAssay AID1963844 (Molecular Pharmacology Branch, DTP, NCI, 2024)

Tested on: 422866-222-R5-J1-PDC complex spheroid viability
Experiment: Anticancer human tumor 422866-222-R5-J1-PDC patient-derived pancreatic adenocarcinoma cell line growth inhibition [POLQ]
Settings: for IC50: curve of first compound; for viability, T/C: stronger effect = lower value
Procedure, shortened: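 Complex spheroid viability model combining PDC tumour cells with endothelial (HUVEC) and MSC stromal cells. Novobiocin, ART-558 or RP6685 were tested singly and in combination with standard and investigational anticancer drugs. Each was titrated in half-log steps from near clinical Cmax, or from 10 microM where Cmax was unknown.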
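Also: spheroids exposed to compounds for one week before readout.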
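For viability, T/C in this document: percent of DMSO vehicle wells luminescence so 100% = untreated viability.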

## CC1COCCN1c1cc(C2(O)CC3CCC(C2)O3)c2cnn(-c3ccn[nH]3)c2n1 (centres undefined) + COC1C(OC(N)=O)C(O)C(Oc2ccc3c(O)c(NC(=O)c4ccc(O)c(CC=C(C)C)c4)c(=O)oc3c2C)OC1(C)C
Second compound 0.0316 µM
  IC50: > 10 µM
Second compound 0.1 µM
  IC50: > 10 µM
Second compound 0.316 µM
  IC50: < 0.0316 µM
Second compound 1 µM
  IC50: > 10 µM
Second compound 3.16 µM
  IC50: > 10 µM
Second compound 10 µM
  IC50: > 10 µM
Second compound 0.0316 µM, first compound 0.0316 µM
  viability, T/C: 71.4%
Second compound 0.0316 µM, first compound 0.1 µM
  viability, T/C: 47.9%
Second compound 0.0316 µM, first compound 0.316 µM
  viability, T/C: 45.8%
Second compound 0.0316 µM, first compound 1 µM
  viability, T/C: 83.7%
Second compound 0.0316 µM, first compound 3.16 µM
  viability, T/C: 70.7%
Second compound 0.0316 µM, first compound 10 µM
  viability, T/C: 79.8%
Second compound 0.1 µM, first compound 0.0316 µM
  viability, T/C: 73.5%
Second compound 0.1 µM, first compound 0.1 µM
  viability, T/C: 47%
Second compound 0.1 µM, first compound 0.316 µM
  viability, T/C: 41.9%
Second compound 0.1 µM, first compound 1 µM
  viability, T/C: 65.3%
Second compound 0.1 µM, first compound 3.16 µM
  viability, T/C: 76.8%
Second compound 0.1 µM, first compound 10 µM
  viability, T/C: 66.4%
Second compound 0.316 µM, first compound 0.0316 µM
  viability, T/C: 72.9%
Second compound 0.316 µM, first compound 0.1 µM
  viability, T/C: 36.2%
Second compound 0.316 µM, first compound 0.316 µM
  viability, T/C: 37%
Second compound 0.316 µM, first compound 1 µM
  viability, T/C: 77.8%
Second compound 0.316 µM, first compound 3.16 µM
  viability, T/C: 71.5%
Second compound 0.316 µM, first compound 10 µM
  viability, T/C: 71.7%
Second compound 1 µM, first compound 0.0316 µM
  viability, T/C: 75.6%
Second compound 1 µM, first compound 0.1 µM
  viability, T/C: 45.3%
Second compound 1 µM, first compound 0.316 µM
  viability, T/C: 47.8%
Second compound 1 µM, first compound 1 µM
  viability, T/C: 77.7%
Second compound 1 µM, first compound 3.16 µM
  viability, T/C: 63.4%
Second compound 1 µM, first compound 10 µM
  viability, T/C: 77.7%
Second compound 3.16 µM, first compound 0.0316 µM
  viability, T/C: 84.3%
Second compound 3.16 µM, first compound 0.1 µM
  viability, T/C: 44.4%
Second compound 3.16 µM, first compound 0.316 µM
  viability, T/C: 48%
Second compound 3.16 µM, first compound 1 µM
  viability, T/C: 75.2%
Second compound 3.16 µM, first compound 3.16 µM
  viability, T/C: 67.5%
Second compound 3.16 µM, first compound 10 µM
  viability, T/C: 71.1%
Second compound 10 µM, first compound 0.0316 µM
  viability, T/C: 79.1%
Second compound 10 µM, first compound 0.1 µM
  viability, T/C: 52.7%
Second compound 10 µM, first compound 0.316 µM
  viability, T/C: 40.7%
Second compound 10 µM, first compound 1 µM
  viability, T/C: 82.9%
Second compound 10 µM, first compound 3.16 µM
  viability, T/C: 75.2%
Second compound 10 µM, first compound 10 µM
  viability, T/C: 65.6%

## CC(=O)O[C@H]1C(=O)[C@@]2(C)[C@H]([C@H](OC(=O)c3ccccc3)[C@]3(O)C[C@H](OC(=O)[C@H](O)[C@@H](NC(=O)c4ccccc4)c4ccccc4)C(C)=C1C3(C)C)[C@]1(OC(C)=O)CO[C@@H]1C[C@@H]2O + Cc1cccc(N(C)C(=O)C2C(O)CCN2c2nc(C)cc(C(F)(F)F)c2C#N)c1
Second compound 0.0316 µM
  IC50: < 0.00949 µM
Second compound 0.1 µM
  IC50: > 3 µM
Second compound 0.316 µM
  IC50: > 3 µM
Second compound 1 µM
  IC50: < 0.00949 µM
Second compound 3.16 µM
  IC50: > 3 µM
Second compound 10 µM
  IC50: < 0.00949 µM
Second compound 0.0316 µM, first compound 0.00949 µM
  viability, T/C: 48.8%
Second compound 0.0316 µM, first compound 0.03 µM
  viability, T/C: 47.8%
Second compound 0.0316 µM, first compound 0.0949 µM
  viability, T/C: 44.6%
Second compound 0.0316 µM, first compound 0.3 µM
  viability, T/C: 53%
Second compound 0.0316 µM, first compound 0.949 µM
  viability, T/C: 52.6%
Second compound 0.0316 µM, first compound 3 µM
  viability, T/C: 56%
Second compound 0.1 µM, first compound 0.00949 µM
  viability, T/C: 54%
Second compound 0.1 µM, first compound 0.03 µM
  viability, T/C: 47.9%
Second compound 0.1 µM, first compound 0.0949 µM
  viability, T/C: 58.1%
Second compound 0.1 µM, first compound 0.3 µM
  viability, T/C: 50.2%
Second compound 0.1 µM, first compound 0.949 µM
  viability, T/C: 49.4%
Second compound 0.1 µM, first compound 3 µM
  viability, T/C: 52.6%
Second compound 0.316 µM, first compound 0.00949 µM
  viability, T/C: 54%
Second compound 0.316 µM, first compound 0.03 µM
  viability, T/C: 51.9%
Second compound 0.316 µM, first compound 0.0949 µM
  viability, T/C: 55.2%
Second compound 0.316 µM, first compound 0.3 µM
  viability, T/C: 46.3%
Second compound 0.316 µM, first compound 0.949 µM
  viability, T/C: 52.3%
Second compound 0.316 µM, first compound 3 µM
  viability, T/C: 56.6%
Second compound 1 µM, first compound 0.00949 µM
  viability, T/C: 49.8%
Second compound 1 µM, first compound 0.03 µM
  viability, T/C: 41.3%
Second compound 1 µM, first compound 0.0949 µM
  viability, T/C: 51.9%
Second compound 1 µM, first compound 0.3 µM
  viability, T/C: 55.6%
Second compound 1 µM, first compound 0.949 µM
  viability, T/C: 50.9%
Second compound 1 µM, first compound 3 µM
  viability, T/C: 59.8%
Second compound 3.16 µM, first compound 0.00949 µM
  viability, T/C: 57.5%
Second compound 3.16 µM, first compound 0.03 µM
  viability, T/C: 46.9%
Second compound 3.16 µM, first compound 0.0949 µM
  viability, T/C: 59.7%
Second compound 3.16 µM, first compound 0.3 µM
  viability, T/C: 49.8%
Second compound 3.16 µM, first compound 0.949 µM
  viability, T/C: 57.8%
Second compound 3.16 µM, first compound 3 µM
  viability, T/C: 67.8%
Second compound 10 µM, first compound 0.00949 µM
  viability, T/C: 47.7%
Second compound 10 µM, first compound 0.03 µM
  viability, T/C: 48%
Second compound 10 µM, first compound 0.0949 µM
  viability, T/C: 42.9%
Second compound 10 µM, first compound 0.3 µM
  viability, T/C: 51.6%
Second compound 10 µM, first compound 0.949 µM
  viability, T/C: 64.9%
Second compound 10 µM, first compound 3 µM
  viability, T/C: 68.3%
